Measured values taken from patent publication US20120065103A1, “Prolyl Endopeptidase Probes” (priority 2010, published 2012).

Legend:
[1] = tested on: BALF proteases (prolyl endopeptidase activity); assay: IQFP protease substrate profiling of BALF from infected and uninfected guinea pigs (Table 1); type: biochemical, guinea pig; details: for FI infected / Fold infected: infected guinea pig BALF; for Fold enhancement: infected vs uninfected guinea pig BALF; for FI uninfected / Fold uninfected: uninfected guinea pig BALF
Text: Methods: The substrate specificity of AF in vitro culture supernatant was profiled with a combinatorial IQFP library in comparison with human serum to identify fungus-specific substrates. An established guinea pig model of IA was used to collect BALF during active disease for in vivo protease substrate profiling.
(§1) Methods: Guinea pig inhalation model comprises neutropenia by cortisone acetate and cyclophosphamide (days −2 and +3), 1.2×10^8 conidia/mL nebulized AF in inhalation chamber, and serum and BALF obtained at predetermined time points; Vallor et al. Antimicrob. Ag. Chemother. 2008, 52.

[2] = tested on: Aspergillus fumigatus infected and uninfected guinea pig broncheoaveolar lavage fluid; assay: Screening probes against Aspergillus fumigatus infected and uninfected guinea pig BALF (Table 2); type: biochemical
Text: as §1
Table 2 Legend. Variable region (Xaa—Yaa—Zaa) of the top 6 peptide probes are all listed in single amino acid code; AF293 and CEA10 are the two strains of Aspergillus fumigatus infected guinea pig BALF samples screened in this study.
N stands for number of guinea pig BALF samples screened against the given peptide probe. Guinea pig infected and uninfected samples with very low background (t=0 hour) and end point values (t=6 hour) (i.e., no greater than 100 units difference between t=0 hour and t=6 hour) were not selected for the statistical calculations.
Mean fold change values is the average of fluorescence fold change calculated for each guinea pig sample screened against respective peptide probe. Fluorescence fold change values are calculated according to the formula:
Fold Change=Fluorescence measured at time t=6 hour/Fluorescence measured at time t=0 hour.
* Fold change values for these peptide probes were calculated at time t=3 hour as the end point value.
SD corresponds to standard deviation calculated for the given probe screened against the respective BALF sample.
Percentage fluorescence efficiency (% FE) is calculated for each probe as follows, % FE=100 * [(Fold changeInfected BALF-Fold changeUninfected BALF)/Fold changeuninfected BALF] Fold change values are all the mean fold change values.
P values are calculated with two tailed student t-test with two sample unequal variance for each peptide probe screened against respective infected and uninfected BALF samples. […]

[3] = strain AF293, end point t=3 hour
[4] = strain AF293, end point t=3 hour vs t=0 hour
[5] = strain AF293 series, end point t=3 hour vs t=0 hour
[6] = strain CEA10, end point t=3 hour
[7] = strain CEA10, end point t=3 hour vs t=0 hour
[8] = strain CEA10 series, end point t=3 hour vs t=0 hour
[9] = strain AF293, t=6 hour vs t=0 hour
[10] = strain AF293 series, t=6 hour vs t=0 hour
[11] = strain CEA10, t=6 hour vs t=0 hour
[12] = strain CEA10 series, t=6 hour vs t=0 hour

## MeOCGly-G-G-P-D/E-P-G-G-Dap(Dnp)-K-K
[1]
  FI infected: 349
  Fold infected: 2.3
  Fold enhancement: 2.31
  FI uninfected: 213
  Fold uninfected: 1

## MeOCGly-G-G-P-D/E-K/R-G-G-Dap(Dnp)-K-K
[1]
  FI infected: 161
  Fold infected: 1.64
  Fold enhancement: 2.02
  FI uninfected: 118
  Fold uninfected: 0.81

## MeOCGly-G-G-P-N/Q-P-G-G-Dap(Dnp)-K-K
[1]
  FI infected: 598
  Fold infected: 3.93
  Fold enhancement: 2.76
  FI uninfected: 261
  Fold uninfected: 1.43

## MeOCGly-G-G-P-K/R-P-G-G-Dap(Dnp)-K-K
[1]
  FI infected: 498
  Fold infected: 2.88
  Fold enhancement: 2.37
  FI uninfected: 213
  Fold uninfected: 1.22

## MeOCGly-G-G-P-F/Y-N/Q-G-G-Dap(Dnp)-K-K
[1]
  FI infected: 286
  Fold infected: 2.8
  Fold enhancement: 2.15
  FI uninfected: 154
  Fold uninfected: 1.31

## MeOCGly-GGPNPGG Dap(DNP)KK-NH2
[2]; [3]
  % FE (percentage fluorescence efficiency): 274.00%
[2]; [4]
  Mean Fold change, Infected BALF: 5.68
[2]; [5]
  Mean Fold Change, Uninfected BALF: 1.52
[2]; [6]
  % FE (percentage fluorescence efficiency): 252.39%
[2]; [7]
  Mean Fold change, Infected BALF: 13.68
[2]; [8]
  Mean Fold Change, Uninfected BALF: 3.88

## MeOCGly-G-G-P-F/Y-A/V-G-G-Dap(Dnp)-K-K
[1]
  FI infected: 493
  Fold infected: 3.06
  Fold enhancement: 2.04
  FI uninfected: 294
  Fold uninfected: 1.5

## MeOCGly-G-G-P-N/Q-A/V-G-G-Dap(Dnp)-K-K
[1]
  FI infected: 394
  Fold infected: 4.02
  Fold enhancement: 3.33
  FI uninfected: 151
  Fold uninfected: 1.21

## MeOCGly-G-G-P-I/L-P-G-G-Dap(Dnp)-K-K
[1]
  FI infected: 474
  Fold infected: 2.74
  Fold enhancement: 2.21
  FI uninfected: 223
  Fold uninfected: 1.24

## MeOCGly-G-G-P-F/Y-K/R-G-G-Dap(Dnp)-K-K
[1]
  FI infected: 238
  Fold infected: 2.09
  Fold enhancement: 2.06
  FI uninfected: 151
  Fold uninfected: 1.01

## MeOCGly-GGPHPGG Dap(DNP)KK-NH2
[2]; strain AF293, t=6 hour
  % FE (percentage fluorescence efficiency): 219.69%
[2]; [9]
  Mean Fold change, Infected BALF: 4.47
[2]; [10]
  Mean Fold Change, Uninfected BALF: 1.40
[2]; strain CEA10, t=6 hour
  % FE (percentage fluorescence efficiency): 217.59%
[2]; [11]
  Mean Fold change, Infected BALF: 10.61
[2]; [12]
  Mean Fold Change, Uninfected BALF: 3.34

## MeOCGly-GGPYPGG Dap(DNP)KK-NH2
[2]; [3]
  % FE (percentage fluorescence efficiency): 203.00%
[2]; [4]
  Mean Fold change, Infected BALF: 5.42
[2]; [5]
  Mean Fold Change, Uninfected BALF: 1.79
[2]; [6]
  % FE (percentage fluorescence efficiency): 310.44%
[2]; [7]
  Mean Fold change, Infected BALF: 14.62
[2]; [8]
  Mean Fold Change, Uninfected BALF: 3.56

## MeOCGly-G-G-P-S/T-F/Y-G-G-Dap(Dnp)-K-K
[1]
  FI infected: 397
  Fold infected: 3.31
  Fold enhancement: 3.08
  FI uninfected: 146
  Fold uninfected: 1.07

## MeOCGly-GGPSPGG Dap(DNP)KK-NH2
[2]; strain AF293, t=6 hour
  % FE (percentage fluorescence efficiency): 309.39%
[2]; [9]
  Mean Fold change, Infected BALF: 12.49
[2]; [10]
  Mean Fold Change, Uninfected BALF: 3.05
[2]; strain CEA10, t=6 hour
  % FE (percentage fluorescence efficiency): 142.55%
[2]; [11]
  Mean Fold change, Infected BALF: 11.00
[2]; [12]
  Mean Fold Change, Uninfected BALF: 4.54

## MeOCGly-GGPFPGG Dap(DNP)KK-NH2
[2]; strain AF293, t=6 hour
  % FE (percentage fluorescence efficiency): 227.09%
[2]; [9]
  Mean Fold change, Infected BALF: 6.58
[2]; [10]
  Mean Fold Change, Uninfected BALF: 2.01
[2]; strain CEA10, t=6 hour
  % FE (percentage fluorescence efficiency): 326.24%
[2]; [11]
  Mean Fold change, Infected BALF: 12.44
[2]; [12]
  Mean Fold Change, Uninfected BALF: 2.92

## MeOCGly-G-G-P-S/T-A/V-G-G-Dap(Dnp)-K-K
[1]
  FI infected: 467
  Fold infected: 4.28
  Fold enhancement: 2.39
  FI uninfected: 176
  Fold uninfected: 1.8

## MeOCGly-GGPNPNPGG Dap(DNP)KK-NH2
[2]; strain AF293, t=6 hour
  % FE (percentage fluorescence efficiency): 355.02%
[2]; [9]
  Mean Fold change, Infected BALF: 13.47
[2]; [10]
  Mean Fold Change, Uninfected BALF: 2.96
[2]; strain CEA10, t=6 hour
  % FE (percentage fluorescence efficiency): 111.20%
[2]; [11]
  Mean Fold change, Infected BALF: 8.72
[2]; [12]
  Mean Fold Change, Uninfected BALF: 4.13

## MeOCGly-G-G-P-A/V-N/Q-G-G-Dap(Dnp)-K-K
[1]
  FI infected: 325
  Fold infected: 2.18
  Fold enhancement: 2.13
  FI uninfected: 188
  Fold uninfected: 1.02

## MeOCGly-G-G-P-A/V-P-G-G-Dap(Dnp)-K-K
[1]
  FI infected: 488
  Fold infected: 2.85
  Fold enhancement: 2.62
  FI uninfected: 234
  Fold uninfected: 1.09

## MeOCGly-G-G-P-S/T-P-G-G-Dap(Dnp)-K-K
[1]
  FI infected: 665
  Fold infected: 3.63
  Fold enhancement: 2.81
  FI uninfected: 277
  Fold uninfected: 1.29

## MeOCGly-G-G-P-F/Y-P-G-G-Dap(Dnp)-K-K
[1]
  FI infected: 424
  Fold infected: 4.71
  Fold enhancement: 4.07
  FI uninfected: 124
  Fold uninfected: 1.16
